Like-named read-outs stand apart in the source and are kept apart here.
Tests used:
Experiment in all cases: HotSpot kinase profiling
Type in all cases: biochemical
MARK2/PAR-1Ba = target: T1, MARK2/PAR-1Ba (Homo sapiens, UniProt Q7KZI7)
T1 construct: purchased Reaction Biology Corp
Outline: (§1)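 Radiometric kinase assay with P81 filter capture; each kinase was added to fresh substrate plus cofactors in reaction buffer and incubated 2 h at room temperature. Unreacted phosphate was washed off with 0.1% phosphoric acid before detection; percent inhibition is relative to DMSO control, averaged over replicates.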

PKA = target: T2, PKA (Homo sapiens, UniProt P17612)
T2 construct: purchased Reaction Biology Corp
Outline: as §1

PKD2/PRKD2 = target: T3, PKD2/PRKD2 (Homo sapiens, UniProt Q9BZL6)
T3 construct: purchased Reaction Biology Corp
T3 sequence (Q9BZL6 1-878): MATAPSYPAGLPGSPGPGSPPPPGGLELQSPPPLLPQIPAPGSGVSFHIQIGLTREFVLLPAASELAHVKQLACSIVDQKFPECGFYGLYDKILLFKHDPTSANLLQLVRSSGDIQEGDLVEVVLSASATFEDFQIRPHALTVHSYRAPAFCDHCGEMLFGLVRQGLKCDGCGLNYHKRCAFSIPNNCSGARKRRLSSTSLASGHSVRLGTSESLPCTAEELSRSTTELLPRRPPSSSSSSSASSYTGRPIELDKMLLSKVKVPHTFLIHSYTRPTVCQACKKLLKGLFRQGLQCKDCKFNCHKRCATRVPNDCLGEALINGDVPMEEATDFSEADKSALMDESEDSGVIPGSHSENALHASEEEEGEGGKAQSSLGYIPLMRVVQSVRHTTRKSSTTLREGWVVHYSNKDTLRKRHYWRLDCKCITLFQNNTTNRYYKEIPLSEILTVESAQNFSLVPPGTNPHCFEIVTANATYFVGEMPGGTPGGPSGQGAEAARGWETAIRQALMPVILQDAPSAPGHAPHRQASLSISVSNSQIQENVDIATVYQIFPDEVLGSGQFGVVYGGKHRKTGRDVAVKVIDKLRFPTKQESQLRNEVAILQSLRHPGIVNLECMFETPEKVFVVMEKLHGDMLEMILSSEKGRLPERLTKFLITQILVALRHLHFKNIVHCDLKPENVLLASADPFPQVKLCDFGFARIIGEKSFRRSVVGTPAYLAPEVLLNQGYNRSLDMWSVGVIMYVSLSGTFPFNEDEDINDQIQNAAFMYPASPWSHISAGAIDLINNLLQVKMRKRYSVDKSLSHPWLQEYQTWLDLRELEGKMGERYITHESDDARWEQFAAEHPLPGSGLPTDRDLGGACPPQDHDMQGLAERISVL
Outline: as §1

Aurora C = target: T4, Aurora C (Homo sapiens, UniProt Q9UQB9)
T4 construct: purchased Reaction Biology Corp
T4 sequence (Q9UQB9 1-309): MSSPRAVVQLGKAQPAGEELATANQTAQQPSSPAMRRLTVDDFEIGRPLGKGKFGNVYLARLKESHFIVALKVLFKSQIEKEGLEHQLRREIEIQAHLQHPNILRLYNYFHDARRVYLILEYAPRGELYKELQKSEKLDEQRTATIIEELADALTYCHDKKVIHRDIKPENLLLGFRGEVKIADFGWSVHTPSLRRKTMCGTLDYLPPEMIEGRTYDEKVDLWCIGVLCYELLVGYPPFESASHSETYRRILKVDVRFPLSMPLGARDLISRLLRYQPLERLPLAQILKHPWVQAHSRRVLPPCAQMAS
Outline: as §1

MEKK2 = target: T5, MEKK2 (Homo sapiens, UniProt Q9Y2U5)
T5 construct: purchased Reaction Biology Corp
T5 sequence (Q9Y2U5 1-619): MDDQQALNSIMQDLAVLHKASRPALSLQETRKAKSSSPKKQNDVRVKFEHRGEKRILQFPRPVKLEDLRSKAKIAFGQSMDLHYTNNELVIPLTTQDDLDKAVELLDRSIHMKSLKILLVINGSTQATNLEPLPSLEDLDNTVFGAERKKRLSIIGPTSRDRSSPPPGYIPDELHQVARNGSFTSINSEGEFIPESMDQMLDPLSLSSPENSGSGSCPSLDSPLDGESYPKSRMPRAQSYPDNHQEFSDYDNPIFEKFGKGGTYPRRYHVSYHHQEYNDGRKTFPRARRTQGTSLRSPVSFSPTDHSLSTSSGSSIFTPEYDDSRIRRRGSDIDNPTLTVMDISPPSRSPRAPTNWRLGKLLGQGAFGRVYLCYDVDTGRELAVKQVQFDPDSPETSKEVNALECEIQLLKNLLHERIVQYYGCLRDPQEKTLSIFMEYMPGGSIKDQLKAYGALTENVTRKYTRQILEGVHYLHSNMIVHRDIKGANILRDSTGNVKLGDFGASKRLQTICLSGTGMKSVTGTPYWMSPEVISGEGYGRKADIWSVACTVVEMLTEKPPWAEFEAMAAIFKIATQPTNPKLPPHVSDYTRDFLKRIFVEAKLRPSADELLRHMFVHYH
Outline: as §1

MLK1/MAP3K9 = target: T6, MLK1/MAP3K9 (Homo sapiens, UniProt P80192)
T6 construct: purchased Reaction Biology Corp
Outline: as §1

[1] = read-out: % Enzyme Activity (relative to DMSO controls) Run 1
[2] = read-out: % Enzyme Activity (relative to DMSO controls) Run 2

T1 sequence (Q7KZI7 1-725 isoform Q7KZI7-4): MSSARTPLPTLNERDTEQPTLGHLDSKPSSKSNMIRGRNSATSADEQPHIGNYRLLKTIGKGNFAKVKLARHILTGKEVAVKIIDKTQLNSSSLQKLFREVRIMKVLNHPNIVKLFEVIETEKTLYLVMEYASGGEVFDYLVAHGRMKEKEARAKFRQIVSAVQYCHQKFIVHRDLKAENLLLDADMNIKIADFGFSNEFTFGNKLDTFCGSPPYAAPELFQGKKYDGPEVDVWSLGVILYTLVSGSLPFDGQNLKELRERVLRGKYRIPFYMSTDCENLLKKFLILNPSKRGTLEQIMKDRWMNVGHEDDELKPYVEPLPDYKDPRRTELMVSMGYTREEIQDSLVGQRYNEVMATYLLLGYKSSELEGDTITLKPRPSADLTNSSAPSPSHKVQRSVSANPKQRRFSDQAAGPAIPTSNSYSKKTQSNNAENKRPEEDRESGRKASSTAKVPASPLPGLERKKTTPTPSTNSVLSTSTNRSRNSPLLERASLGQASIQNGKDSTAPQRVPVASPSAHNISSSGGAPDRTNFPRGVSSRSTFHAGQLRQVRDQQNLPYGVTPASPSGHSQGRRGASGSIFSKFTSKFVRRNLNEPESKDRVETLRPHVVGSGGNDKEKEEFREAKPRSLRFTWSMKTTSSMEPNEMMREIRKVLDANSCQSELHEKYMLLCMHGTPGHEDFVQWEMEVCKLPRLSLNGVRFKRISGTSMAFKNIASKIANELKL
T6 sequence (P80192 whole entry): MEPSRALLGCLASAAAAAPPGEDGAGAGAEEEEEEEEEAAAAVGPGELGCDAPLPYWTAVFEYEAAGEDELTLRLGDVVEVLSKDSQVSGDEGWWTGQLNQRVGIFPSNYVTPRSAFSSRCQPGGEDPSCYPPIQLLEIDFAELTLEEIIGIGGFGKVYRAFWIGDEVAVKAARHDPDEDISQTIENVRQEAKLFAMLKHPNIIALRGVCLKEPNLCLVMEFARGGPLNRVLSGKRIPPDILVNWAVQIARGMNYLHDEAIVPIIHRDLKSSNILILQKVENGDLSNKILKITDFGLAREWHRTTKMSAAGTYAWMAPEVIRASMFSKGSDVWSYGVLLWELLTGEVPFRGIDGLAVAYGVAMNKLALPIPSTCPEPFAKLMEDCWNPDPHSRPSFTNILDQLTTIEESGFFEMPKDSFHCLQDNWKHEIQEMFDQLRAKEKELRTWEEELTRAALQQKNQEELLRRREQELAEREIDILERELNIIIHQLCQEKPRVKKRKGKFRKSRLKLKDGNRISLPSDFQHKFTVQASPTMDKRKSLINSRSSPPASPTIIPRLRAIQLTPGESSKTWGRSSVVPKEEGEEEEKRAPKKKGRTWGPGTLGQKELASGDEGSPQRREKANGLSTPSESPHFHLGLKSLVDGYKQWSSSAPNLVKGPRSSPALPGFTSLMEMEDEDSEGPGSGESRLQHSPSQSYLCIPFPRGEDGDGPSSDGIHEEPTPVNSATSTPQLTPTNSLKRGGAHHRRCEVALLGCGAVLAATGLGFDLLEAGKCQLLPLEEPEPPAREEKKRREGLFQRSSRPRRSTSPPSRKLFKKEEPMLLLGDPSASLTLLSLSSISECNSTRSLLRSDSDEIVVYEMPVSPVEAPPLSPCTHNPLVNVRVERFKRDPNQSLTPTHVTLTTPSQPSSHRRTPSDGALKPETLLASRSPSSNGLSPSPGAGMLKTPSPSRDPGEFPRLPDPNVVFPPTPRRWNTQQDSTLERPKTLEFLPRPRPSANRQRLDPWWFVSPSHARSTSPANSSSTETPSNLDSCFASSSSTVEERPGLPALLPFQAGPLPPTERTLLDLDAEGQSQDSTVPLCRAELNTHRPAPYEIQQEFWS

Q: How did the inhibition at 3 µM (MARK2/PAR-1Ba) turn out when C=CC(=O)Nc1cccc(Nc2nc(Nc3ccc(OCCOC)c(F)c3)ncc2F)c1 [Compound 2] was run?
A: 1.3%

Q: What about the remaining activity at 3 µM (MARK2/PAR-1Ba; [1]) of the same compound?
A: 99.6%

Q: And the remaining activity at 3 µM (MARK2/PAR-1Ba; [2])?
A: 97.8%

Q: What about the inhibition at 3 µM (PKA) of the same compound?
A: 14.5%

Q: What about the remaining activity at 3 µM (PKA; [1]) of the same compound?
A: 85.8%

Q: And the remaining activity at 3 µM (PKA; [2])?
A: 85.1%

Q: And the inhibition at 3 µM (PKD2/PRKD2)?
A: 13.7%

Q: What about the remaining activity at 3 µM (PKD2/PRKD2; [1]) of the same compound?
A: 86.4%

Q: And the remaining activity at 3 µM (PKD2/PRKD2; [2])?
A: 86.2%

Q: What about the inhibition at 3 µM (Aurora C) of the same compound?
A: 72%

Q: And the remaining activity at 3 µM (Aurora C; [1])?
A: 26.2%

Q: And the remaining activity at 3 µM (Aurora C; [2])?
A: 29.8%

Q: And the inhibition at 3 µM (MEKK2)?
A: -10.9%

Q: And the remaining activity at 3 µM (MEKK2; [1])?
A: 108%

Q: And the remaining activity at 3 µM (MEKK2; [2])?
A: 114%

Q: What about the inhibition at 3 µM (MLK1/MAP3K9) of the same compound?
A: 85.7%

Q: And the remaining activity at 3 µM (MLK1/MAP3K9; [1])?
A: 14.5%

Q: What about the remaining activity at 3 µM (MLK1/MAP3K9; [2]) of the same compound?
A: 14.1%
